This is an account of results in patent publication US20210084902A1, “FUNGICIDAL MIXTURE COMPRISING SUBSTITUTED 3-PHENYL-5-(TRIFLUOROMETHYL)-1,2,4-OXADIAZOLES” (BASF SE, priority 2017, published 2021).

Holding throughout (assay type): cell-based
The subject of assay [1] is Colletotrichum orbiculare. Description: Fungicidal activity against Colletotrichum orbiculare in the microtiterplate test.
Another assay has as its system Septoria tritici. Description: Fungicidal activity against Septoria tritici, micro titer plate (MTP) test. The following applies: Table V.4, component B alone; for inhibition of growth at […] / inhibition of growth at 1 ppm / inhibition of growth at 4 ppm: Zymoseptoria tritici, 168 h, read-out: Observed efficacy.
The next assay relates to Botrytis cinerea. The experiment in a line: Fungicidal activity against Botrytis cinerea, micro titer plate (MTP) test. The following applies: component B alone; for inhibition of growth at […] / inhibition of growth at 1 ppm: Botrytis cinerea, 168 h, read-out: Observed efficacy; for inhibition of growth at 1 ppm / Observed efficacy: 1 ppm.
Another assay has as its system Pyricularia oryzae. Description: microbe, parasite or virus in culture. The following applies: for Observed efficacy: single compound.
The mark [2] stands for this setting: Colletotrichum orbiculare, 0.063 ppm, read-out: Observed efficacy.
The mark [3] stands for this setting: Colletotrichum orbiculare, 0.25 ppm, read-out: Observed efficacy.
[4] abbreviates: Colletotrichum orbiculare, read-out: Observed efficacy.
[5] abbreviates: Colletotrichum orbiculare, 1 ppm, read-out: Observed efficacy.
The mark [6] stands for this setting: Colletotrichum orbiculare, 0.016 ppm, read-out: Observed efficacy.
Setting [7] is: Pyricularia oryzae, 168 h, read-out: Observed efficacy.

Like-named read-outs stand apart in the source and are kept apart here.

For the molecule `COc1ccnc(C(=O)NC2COC(=O)[C@H](Cc3ccccc3)[C@@H](OC(=O)C(C)C)[C@H](C)OC2=O)c1O` (stereo partly drawn) [A.2.3, [(6S,7R,8R)-8-benzyl-3-[(3-hydroxy-4-methoxy-pyridine-2-carbonyl)amino]-6-methyl-4,9-dioxo-1,5-dioxonan-7-yl] 2-methylpropanoate], the inhibition of growth at […] worked out at 47% in assay [1] (setting [2]), 77% in assay [1] (setting [3]), 52% in the assay with Septoria tritici (0.016 ppm) and 0% in the assay with Botrytis cinerea (0.25 ppm). Further, the inhibition of growth at 1 ppm with Botrytis cinerea was 11%.
Consider `CC(C1CC1)C(O)(Cn1cncn1)c1ccc(Cl)cc1` (stereo not shown) [Cyproconazol, cyproconazole], for which the inhibition of growth at 4 ppm in assay [1] (setting [4]) is 4%.
Consider `CCN(C)C=Nc1cc(Br)c(OC2Cc3ccccc3C2)nc1C` [K.1.30, N′-(5-bromo-6-indan-2-yloxy-2-methyl-3-pyridyl)-N-ethyl-N-methyl-formamidine], for which the inhibition of growth at 1 ppm in the assay on Septoria tritici (1 ppm) came to 0%. In addition, the inhibition of growth at 4 ppm with Septoria tritici (4 ppm) stood at 0%.
For the molecule `CC1(C)CCC(=Cc2ccc(Cl)cc2)C1(O)Cn1cncn1` (stereo not shown) [Triticonazol, triticonazole], the inhibition of growth at 1 ppm in assay [1] (setting [5]) stood at 11%.
Turning to `CCN(C)C=Nc1cc(Br)c(OC(C)c2cc(F)cc(F)c2)nc1C` (stereo not shown) [K.1.31, N′-[5-bromo-6-[1-(3,5-difluorophenyl)ethoxy]-2-methyl-3-pyridyl]-N-ethyl-N-methyl-formamidine], the inhibition of growth at 1 ppm in the assay with Septoria tritici (1 ppm) is 5%; in the assay with Botrytis cinerea it was 53%. Also, the inhibition of growth at 4 ppm with Septoria tritici (4 ppm) was 62%.
As to `CCCCCCCCc1c(CC)nc2ncnn2c1N` [Ametoctradin, ametoctradin], the Observed efficacy in assay [1] (63 ppm) stood at 14; in the assay on Pyricularia oryzae (16 ppm), 8; in the assay with Pyricularia oryzae (63 ppm), 13.
As for `CCC(=O)OCOc1c(OC)ccnc1C(=O)NC1COC(=O)[C@H](Cc2ccccc2)[C@@H](OC(=O)C(C)C)[C@H](C)OC1=O` (stereo partly drawn) [A.2.5, [(6S,7R,8R)-8-benzyl-3-[[4-methoxy-3-(propanoyloxymethoxy)pyridine-2-carbonyl]amino]-6-methyl-4,9-dioxo-1,5-dioxonan-7-yl] 2-methylpropanoate], the inhibition of growth at […] in assay [1] (setting [3]) was 72%; in the assay with Septoria tritici (0.063 ppm), 33%. In the assay with Botrytis cinerea, the inhibition of growth at 1 ppm came to 6%.
Take `COc1cc(C)c(C(=O)c2c(OC)ccc(Br)c2C)c(OC)c1OC` [Metrafenon]: the Observed efficacy in the assay with Septoria tritici (4 ppm) came to 1; with Septoria tritici (16 ppm), 1; in the assay on Pyricularia oryzae (4 ppm), 5; with Pyricularia oryzae (16 ppm), 21.
Take `O=C(NCCc1ncc(C(F)(F)F)cc1Cl)c1ccccc1C(F)(F)F` [Fluopyram, fluopyram]: the inhibition of growth at […] was determined as 15% in assay [1] (setting [3]), 13% with Septoria tritici (0.063 ppm) and 33% in the assay on Septoria tritici (0.25 ppm).
With `CC1CC(C)(C)c2c(F)ccc(NC(=O)c3cn(C)nc3C(F)F)c21` (stereo not shown) [Fluindapyr, 3-(difluoromethyl)-N-(7-fluoro-1,1,3-trimethyl-indan-4-yl)-1-methyl-pyrazole-4-carboxamide], the results for the inhibition of growth at 1 ppm (in assay [1] (setting [5]); in the assay on Septoria tritici (1 ppm)) were 12% and 58%, respectively. The inhibition of growth at […] in the assay with Septoria tritici (0.25 ppm) and with Botrytis cinerea (0.25 ppm) was 21% throughout.
`Cn1cc(C(=O)Nc2ccccc2-c2cc(F)c(F)c(F)c2)c(C(F)F)n1` [Fluxapyroxad, fluxapyroxad] registered an Observed efficacy in assay [1] (0.004 ppm) of 1.
`CCCC1COC(Cn2cncn2)(c2ccc(Cl)cc2Cl)O1` (stereo not shown) [Propiconazol, propiconazole]: the inhibition of growth at […] in assay [1] (setting [6]) came out at 3%; in assay [1] (setting [2]) it was 3%; in assay [1] (setting [3]), 15%; in the assay with Septoria tritici (0.063 ppm), 17%.
For the molecule `CC1CC(C)(C)c2cccc(NC(=O)c3cccnc3C(F)F)c21` (stereo not shown) [A.3.32, 2-(difluoromethyl)-N-(1,1,3-trimethyl-indan-4-yl)pyridine-3-carboxamide], the inhibition of growth at 1 ppm in assay [1] (setting [5]) was 15%; with Septoria tritici (1 ppm), 70%. Further, the figures for the inhibition of growth at […] in the assay on Septoria tritici (0.25 ppm) and in the assay with Botrytis cinerea (0.25 ppm) were 22% and 32%, respectively.
In the case of `CON=C(C(=O)OC)c1ccccc1CON=C(C)c1cccc(C(F)(F)F)c1` [Trifloxystrobin, trifloxystrobin], the figures for the inhibition of growth at […] (in assay [1] (setting [6]); in the assay on Septoria tritici (0.016 ppm); with Botrytis cinerea (0.063 ppm)) were 9%, 43% and 3%, respectively.
Consider `CC[C@H]1CC(C)(C)c2cccc(NC(=O)c3cccnc3C(F)F)c21` [A.3.34, 2-(difluoromethyl)-N-[(3S)3-ethyl-1,1-dimethyl-indan-4-yl]pyridine-3-carboxamide], for which the results for the inhibition of growth at 1 ppm (in assay [1] (setting [5]); in the assay with Botrytis cinerea) were 14% and 51%, respectively. Besides, the inhibition of growth at […] in the assay with Septoria tritici (0.25 ppm) is 17%; in the assay on Botrytis cinerea (0.25 ppm), 1%.
Take `CCCOCC(C)Oc1nc(C)c(N=CN(C)CC)cc1Br` (stereo not shown) [K.1.54, N′-[5-bromo-2-methyl-6-(1-methyl-2-propoxy-ethoxy)-3-pyridyl]-N-ethyl-N-methyl-formamidine]: the inhibition of growth at 1 ppm in the assay with Septoria tritici (1 ppm) is 3%; in the assay on Pyricularia oryzae (setting [7]), 19%.
As to `CC(C)CC(C)c1sccc1NC(=O)c1cn(C)nc1C(F)(F)F` (stereo not shown) [Penthiopyrad, penthiopyrad], the figures for the inhibition of growth at […] (in assay [1] (setting [3]); in the assay with Septoria tritici (0.063 ppm); in the assay with Septoria tritici (0.25 ppm)) were 8%, 5% and 28%, respectively.
`Cn1cc(C(=O)Nc2cccc3c2[C@@H]2CC[C@H]3C2=C(Cl)Cl)c(C(F)F)n1` (racemic) [Benzovindiflupyr, benzovindiflupyr] came in with an Observed efficacy in assay [1] (0.004 ppm) of 2.
On to `CO/N=C(/C(=O)OC)c1ccccc1COc1ccccc1C` [Kresoxim-methyl, kresoxim-methyl], for which the inhibition of growth at […] in assay [1] (setting [3]) was determined as 45%.
Take `CO/C=C(/C(=O)OC)c1ccccc1Oc1cc(Oc2ccccc2C#N)ncn1` [Azoxystrobin, azoxystrobin]: the Observed efficacy in assay [1] (0.004 ppm) is on record as 1.
In the case of `CO/N=C(/C(=O)OC)c1ccccc1COc1ccccc1C` [Kresoximmethyl], the inhibition of growth at […] in the assay on Septoria tritici (0.063 ppm) was found to be 41%. In the assay with Pyricularia oryzae (setting [7]), the inhibition of growth at 1 ppm is 58%.
With `O=c1c2cc(F)ccc2nc(-n2cncn2)n1-c1ccc(Cl)cc1Cl` [Fluquinconazol, fluquinconazole], the inhibition of growth at […] in assay [1] (setting [2]) was found to be 3%. The inhibition of growth at 1 ppm in assay [1] (setting [5]) worked out at 12%.
As for `COC(=O)Nc1nc2ccccc2[nH]1` [Carbendazim, carbendazim], in assay [1] (setting [2]), the inhibition of growth at […] was determined as 60%.
As to `CC1(C)CCC(Cc2ccc(Cl)cc2)C1(O)Cn1cncn1` (stereo not shown) [Metconazol, metconazole], the inhibition of growth at […] in assay [1] (setting [2]) is 11%.
Turning to mancozeb, the figures for the Observed efficacy (in assay [1] (1 ppm); with Septoria tritici (1 ppm)) were 24 and 9, respectively.
In the case of `COc1cc(C)c(C(=O)c2c(OC)ccc(Br)c2C)c(OC)c1OC` [Metrafenone, metrafenone], the inhibition of growth at 4 ppm in assay [1] (setting [4]) was found to be 14%.
In turn, `COc1cc(C)c(C(=O)c2c(OC)ncc(Cl)c2C)c(OC)c1OC` [Pyriofenon, pyriofenone] displayed an Observed efficacy in the assay with Botrytis cinerea of 2%.
For `CNC(=O)/C(=N/OC)c1ccccc1COc1cc(C)ccc1C` [Dimoxystrobin, dimoxystrobin], the figures for the Observed efficacy (in assay [1] (1 ppm); in the assay on Botrytis cinerea) were 71 and 14%, respectively.
As to `COC(=O)C(C)N(C(=O)Cc1ccccc1)c1c(C)cccc1C` (stereo not shown) [Benalaxyl, benalaxyl], the values for the inhibition of growth at 4 ppm (in assay [1] (setting [4]); with Pyricularia oryzae (setting [7])) were 13% and 8%, respectively. Moreover, the inhibition of growth at 1 ppm with Pyricularia oryzae (setting [7]) worked out at 2%.
For `CCCCCOC(=O)Nc1cccc(CO/N=C(/c2ccccc2)c2nnnn2C)n1` [K.1.42, pentyl N-[6-[[(Z)-[(1-methyltetrazol-5-yl)-phenyl-methylene]amino]oxymethyl]-2-pyridyl]carba-mate], the Observed efficacy in assay [1] (1 ppm) was found to be 21; in the assay on Pyricularia oryzae (1 ppm), 9.
In the case of `CC(C)(C)C(O)(CCc1ccc(Cl)cc1)Cn1cncn1` (stereo not shown) [Tebuconazol, tebuconazole], the inhibition of growth at […] in assay [1] (setting [2]) was determined as 2%; in assay [1] (setting [3]) it was 14%. The inhibition of growth at 0.0663 ppm in the assay on Pyricularia oryzae (setting [7]) is 4%.
For the molecule `Cc1nn(C)cc1C(=O)Nc1cccc2c1C(C)CC2(C)C` (stereo not shown) [A.3.24, 1,3-dimethyl-N-(1,1,3-trimethylindan-4-yl)pyrazole-4-carboxamide], the figures for the inhibition of growth at […] (in assay [1] (setting [3]); with Septoria tritici (0.25 ppm); in the assay with Botrytis cinerea (0.25 ppm)) were 3%, 25% and 41%, respectively. The inhibition of growth at 1 ppm was 12% in assay [1] (setting [5]) and 76% in the assay with Septoria tritici (1 ppm).
Turning to `O=C(Cc1ccccc1)N/C(=N\OCC1CC1)c1c(C(F)(F)F)ccc(F)c1F` [Cyflufenamid, cyflufenamid], in assay [1] (Colletotrichum orbiculare, 16 ppm, read-out: Observed efficacy), the inhibition of growth at 16 ppm is 11%.
Turning to `N#Cc1sc2c(=O)c3ccccc3c(=O)c=2sc1C#N` [Dithianon, dithianon], the inhibition of growth at […] in assay [1] (setting [2]) is 21%.
`CCN(C)C=Nc1cc(C)c(Oc2nc(Cc3ccc(Cl)cc3)ns2)cc1C` [K.1.29, N′-[4-[[3-[(4-chorophenyl)methyl]-1,2,4-thiadiazo-5-yl]oxy]-2,5-dimethyl-phenyl]-N-ethyl-N-methyl-formamidine] came in with an Observed efficacy with Septoria tritici (4 ppm) of 6.
For the molecule `OC(Cc1ccccc1Cl)(Cn1nc[nH]c1=S)C1(Cl)CC1` (stereo not shown) [Prothioconazol, prothioconazole], the inhibition of growth at […] in assay [1] (setting [3]) amounted to 14%.
